# According to patent publication US20060229335A1, “Diarylamine and arylheteroarylamine pyrazole derivatives as modulators of 5ht2a” (priority 2002, published 2006):
# Biological target: non-endogenous, constitutively activated version of the human 5-HT2A receptor (human CART 5-HT2A) (Homo sapiens, UniProt P28223)
# Experiment: Intracellular IP3 (inositol phosphate) accumulation assay, inverse agonist potency
# Type: cell-based
# Details: HEK293 cells transfected with mutated constitutively active 5-HT2A, averages of at least two trials, read-out: 5-HT2A (IC50) IP Accumulation Assay
# Text: It is well established that human 5-HT2A receptors coupled to the guanine nucleotide binding protein Gq. 5-HT2A-mediated activation of Gq results in activation of membrane associated phospholipase C which in turn catalyzes the hydrolysis of phosphatidylinositol species (PI, PIP, and PIP2) to form inositol phosphate species (IP, IP2, and IP3). The accumulation of inositol phosphate species can be measured and is often used to determine the functional potency of 5-HT2A agonists or antagonists. However, to evaluate compounds for potential inverse agonist activity, the 5-HT2A receptor must display constitutive activity. We have mutated the human 5-HT2A receptor so as to generate a non-endogenous, constitutively activated version of the 5-HT2A receptor, as disclosed in SEQ ID NO:30 (polynucleotide) and SEQ ID NO:31 (polypeptide) in U.S. Pat. No. 6,541,209 (the disclosure of which is hereby incorporated by reference in its entirety). Upon transfection of this mutated 5-HT2A into HEK293 cells, it was observed that there was a ligand-independent increase in basal inositol phosphate accumulation compared to untransfected cells. This ligand-independent insoitol phosphate accumulation is a trademark of constitutive activity. The following protocol was used to assess inverse agonist potency of compounds.
# On day one, 13×10^6 HEK293 cells per 150 mm plate were plated out. On day two, 2 ml of serum OptimemI is added per plate followed by addition of 60 ul of lipofectamine and 16ug of cDNA. Note that lipofectamine must be added to the OptimemI and mixed well before addition of cDNA. While complexes between lipofectamine and the cDNA are forming, media is carefully aspirated and cells are gently rinsed with 5 ml of OptimemI media followed by careful aspiration. Then 12 ml of OptimemI is added to each plate and 2 ml of transfection solution is added followed by a 5 hour incubation at 37° C. in a 5% CO2 incubator. Plates are then carefully aspirated and 25 ml of Complete Media are added to each plate and cells are then incubated until used. On day 3, cells are trypsinized with 5 ml of 0.05% trypsin for 20-30 seconds followed by addition of 10 ml of warmed media, gently titurated to dissociate cells, and then 13 additional ml of warmed media is gently added. Cells are then counted and then 55,000 cells are added to 96-well sterile poly-D-lysine coated plates. Cells are allowed to attach over a six hour incubation at 37° C. in a 5% CO2 incubator. Media is then carefuilly aspirated and 100 ul of warm inositol-free media plus 0.5 μCi ^3H-inositol is added to each well and the plates are incubated for 18-20 hours at 37° C. in a 5% CO2 incubator.
# On day 4, media is carefully aspirated and then 0.1 ml of assay medium is added containing inositol-free/serum free media, 10 μM pargyline, 10 mM lithium chloride, and test compound at indicated concentrations. The plates were then incubated for three hours at 37° C. and then wells are carefully aspirated. Then 200 ul of ice-cold 0.1M formic acid is added to each well. Plates can then be frozen at this point at −80° C. until further processed. Frozen plates are then thawed over the course of one hour, and the contents of the wells (approximately 220 ul) are placed over 400 ul of washed ion-exchange resin (AG 1-X8) contained in a Multi Screen Filtration plate and incubated for 10 minutes followed by filtration under vacuum pressure. Resin is then washed nine times with 200 ul of water and then [^3H]inositol phosphates are eluted into a collecting plate by the addition of 200 ul of 1M ammonium formate and an additional 5 minute incubation. The elutant is then transferred to 20 ml scintillation vials, 8 ml of SuperMix or Hi-Safe scintillation cocktails is added, and vials are counted for 0.5-1 minutes in a Wallac 1414 scintilation counter.
# At each concentration, triplicate determinations were made. […]
row,SMILES,IC50
1,"COc1ccc(Nc2ccc(Cl)cc2)cc1-c1c(Br)cnn1C [Compound 70, [3-(4-Bromo-2-methyl-2H-pyrazol-3-yl)-4-methoxy-phenyl)-(4-chloro-phenyl)-amine]",1.77 nM
2,"Cn1ncc(Br)c1-c1cccc(Nc2ccc(Cl)cc2)c1 [Compound 36, [3-(4-Bromo-2-methyl-2H-pyrazo1-3-yl)-phenyl]-(4-chloro-phenyl)-amine]",7 nM
3,"Cn1ncc(Br)c1-c1cccc(Nc2ccc(C(F)(F)F)cc2)c1 [Compound 44, [3-(4-Bromo-2-methyl-2H-pyrazol-3-yl)-phenyl]-(4-trifluoromethyl-phenyl)-amine]",2.99 nM
4,"Cn1ncc(Br)c1-c1cccc(Nc2ccc(S(C)(=O)=O)cc2)c1 [Compound 46, [3-(4-Bromo-2-methyl-2H-pyrazol-3-yl)-phenyl]-(4-methanesulfonyl-phenyl)-amine]",113 nM
5,"Cn1ncc(Cl)c1-c1cccc(Nc2ccc(OC(F)(F)F)cc2)c1 [Compound 8, [3-(4-Chloro-2-methyl-2H-pyrazol-3-yl)-phenyl]-(4-trifluoromethoxy-phenyl)-amine]",44.6 nM
6,"Cc1cc(Nc2cccc(-c3c(Br)cnn3C)c2)ccc1Cl [Compound 49, [3-(4-Bromo-2-methyl-2H-pyrazol-3-yl)-phenyl]-(3-methyl-4-chloro-phenyl)-amine]",19 nM
7,"Cn1ncc(Br)c1-c1cccc(Nc2nc3ccccc3o2)c1 [Compound 57, Benzoxazol-2-yl-[3-(4-bromo-2-methyl-2H-pyrazol-3-yl)-phenyl]-amine]",10.6 nM
